Paper PMC12461331, “Screening of Medicines for Malaria Venture Open Boxes Identifies Potent SARS-CoV‑2 Papain-like Protease (PL^pro) Inhibitors” (ACS Omega, 2025)
≈ marks a conversion by molar mass, not a printed value. Where “and” joins values, the source holds several entries; their conditions need not be identical. Equal entries are not always repeated. Where two headings read alike, the source gives them in different places.

What was measured:
[1] = test system: uninfected HeLa-ACE2 cells; details: Hela-ACE2 Uninfected Cell Toxicity; for S0 / Sinf / nHill: curve fit; for qAC50: relation in column qAC50 Mode, unit not given
[2] = Parallel artificial membrane permeability assay (PAMPA)
[3] = Mouse liver microsomal stability assay; details: CD1, mouse, pH 7.4
Kinetic solubility = details: 25 °C, kinetic from dmso stock
[4] = female, BALB/c, mouse, 1 h, pH 7.4
HeLa-ACE2 cells [5] = test system: HeLa-ACE2 cells
[6] = Human liver microsomal stability assay; details: human; for half-life at 0.5 μM: pH 7.4
SARS-CoV-2 [7] = details: for Data Mode: Hela-ACE2 % Positive SARS-CoV-2; for S0 / Sinf / nHill: Hela-ACE2 % Positive SARS-CoV-2, curve fit
HeLa-ACE2 cells [8] = assay: cells; details: Homo sapiens
Plasma stability = details: female, BALB/c, mouse, plasma, pH 7.4
SARS-CoV-2 [9] = assay: microbe, parasite or virus in culture; details: for AC50: Severe acute respiratory syndrome coronavirus 2, HeLa-ACE2, read-out: Log AC50 (converted); for inhibition at 9.61 µM: Severe acute respiratory syndrome coronavirus 2, HeLa-ACE2, read-out: inhibition in the highest concentration tested
in vitro [10] = details: human, uninfected HeLa-ACE2 cells
[11] = Chromatographic distribution coefficient (eLogD7.4); details: pH 7.4
physchem [12] = details: 25 °C, kinetic from dmso stock
in vitro [13] = details: CD1, mouse, microsomes, pH 7.4
PL^pro = PL^pro (Severe acute respiratory syndrome coronavirus 2, UniProt P0DTD1); details: 20 μM compound, 5 μM enzyme, average of triplicates with SD
in vitro [14] = details: PAMPA
in vitro [15] = details: human, microsomes, pH 7.4
physchem [16] = details: pH 7.4
SARS-CoV-2 PL^pro = SARS-CoV-2 PL^pro (Severe acute respiratory syndrome coronavirus 2, UniProt P0DTD1); assay type: biochemical
[17] = human, microsomes
[18] = Hela-ACE2 CoV-2 Total Cell count
[19] = Hela-ACE2 CoV-2 Total Cell count, curve fit
[20] = HeLa-ACE2, read-out: HeLa-ACE2 Total cells EC50
[21] = Severe acute respiratory syndrome coronavirus 2, HeLa-ACE2, read-out: SARS-CoV-2 EC50, HeLa-ACE2 cells, average of triplicates
[22] = Severe acute respiratory syndrome coronavirus 2, HeLa-ACE2, read-out: qAC50, Hela-ACE2 % Positive SARS-CoV-2, relation in column qAC50 Mode, unit inferred
[23] = uninfected HeLa-ACE2 CC50, supplement summary
[24] = uninfected HeLa-ACE2 CC50, uninfected HeLa-ACE2 cells, average of triplicates

## COc1ccc(CNC(=O)C2CCN(C(C)c3cccc4ccccc34)C2)cc1 (centres unmarked) [Compound 17]
[1]
  Data Mode: decreasing
  S0: -3.377
  Sinf: -100
  nHill: 2.597
  qAC50: 2.965e-5
[2]
  Papp at 5 h, 10 μM: 0.61 ×10⁻⁶ cm/s
[3]; microsomes
  half-life at 0.5 μM: 10.3 min
  microsomal CLint at 0.5 μM: 270 µL/min/mg
Kinetic solubility; pH 2, aqueous buffer
  solubility kinetic at 24 h: > 24 µg/mL
Kinetic solubility; pH 7.4, aqueous buffer
  solubility kinetic at 24 h: > 19.9 µg/mL
[4]
  plasma stability remaining 60 min: 73.01%
HeLa-ACE2 cells [5]; [18]
  Data Mode: increasing (weakly active)
HeLa-ACE2 cells [5]; [19]
  S0: -9.971
  Sinf: 100
  nHill: 1.233
HeLa-ACE2 cells [5]; infected HeLa-ACE2 total cell count
  HeLa-ACE2 Total Cell Efficacy (Sinf, note + or -): 1.233
[6]; microsomes
  half-life at 0.5 μM: 21.7 min
[6]; microsomes, pH 7.4, HLM CLint(mic), human liver microsomes
  microsomal CLint at 0.5 μM: 128 µL/min/mg
SARS-CoV-2 [7]; HeLa-ACE2
  CoV2 Efficacy (delta S0:Sinf): 107.984
SARS-CoV-2 [7]
  Data Mode: decreasing
  S0: 7.984
  Sinf: -100
  nHill: 2.951
HeLa-ACE2 cells [8]; [20]
  EC50: > 9.61 µM
HeLa-ACE2 cells [8]; HeLa-ACE2, read-out: Log AC50 (converted)
  AC50: > 9.61 µM
HeLa-ACE2 cells [8]; HeLa-ACE2, read-out: qAC50
  EC50: > 9.61 µM
Plasma stability
  half-life at 2 μM: 770 min
SARS-CoV-2 [9]; Severe acute respiratory syndrome coronavirus 2, HeLa-ACE2, read-out: CoV-2 EC50, HeLa-ACE2, supplement summary
  EC50: 6.49 µM
SARS-CoV-2 [9]
  AC50: 6.48 µM
  inhibition at 9.61 µM: > 50%
SARS-CoV-2 [9]; [21]
  EC50: 6.4 ± 0.4 µM
SARS-CoV-2 [9]; [22]
  EC50: 6.48 µM
In vitro [10]
  AC50 at 24 h: 29.6 µM
In vitro [10]; [23]
  CC50 at 24 h: 29.6 µM
In vitro [10]; [24]
  CC50 at 24 h: 29.6 ± 0.2 µM
[11]
  chromatographic logD: 4.25

## C[C@@H](c1cccc2ccccc12)N1CCC(C(=O)NCC2CCCCC2)CC1 (racemic) [Compound 11]
Physchem [12]; pH 2, aqueous buffer
  solubility kinetic at 24 h: > 23.1 µg/mL
Physchem [12]; pH 7.4, aqueous buffer
  solubility kinetic at 24 h: 6.15 µg/mL (≈ 16.2 µM)
[1]
  Data Mode: inactive
  qAC50: > 3.984e-5
[3]; liver microsomes
  half-life at 0.5 μM: 7.84 min
In vitro [13]
  microsomal CLint at 0.5 μM: 354 µL/min/mg
PL^pro
  ΔT m: 0.90 ± 0.07 °C
In vitro [14]
  Papp at 5 h, 10 μM: 0.35 ×10⁻⁶ cm/s
In vitro [15]
  microsomal CLint at 0.5 μM: 209 µL/min/mg
[4]; 2 μM
  plasma stability remaining 60 min: 47.10%
HeLa-ACE2 cells [5]; [18]
  Data Mode: inactive
[6]; liver microsomes
  half-life at 0.5 μM: 13.2 min
SARS-CoV-2 [7]
  Data Mode: inactive
HeLa-ACE2 cells [8]; [20]
  EC50: > 9.61 µM
HeLa-ACE2 cells [8]; HeLa-ACE2, read-out: qAC50
  EC50: > 9.61 µM
Plasma stability
  half-life at 2 μM: 315 min
Physchem [16]
  chromatographic logD: 4.8
SARS-CoV-2 [9]; [21]
  EC50: > 9.61 µM
SARS-CoV-2 [9]; [22]
  EC50: > 9.61 µM
In vitro [10]; [23]
  CC50 at 24 h: > 39.8 µM
In vitro [10]; [24]
  CC50 at 24 h: > 39.8 µM

## C[C@H](c1cccc2ccccc12)N1CCC(C(=O)NCc2ccc(Cl)cc2)CC1 [Compound 12]
Physchem [12]; pH 2, aqueous buffer
  solubility kinetic at 24 h: > 24.1 µg/mL
Physchem [12]; pH 7.4, aqueous buffer
  solubility kinetic at 24 h: 10.2 µg/mL (≈ 25.1 µM)
[1]
  Data Mode: decreasing
  S0: 0.4208
  Sinf: -100
  nHill: 3.064
  qAC50: 1.447e-5
[3]; liver microsomes
  half-life at 0.5 μM: 12.3 min
In vitro [13]
  microsomal CLint at 0.5 μM: 226 µL/min/mg
PL^pro
  ΔT m: 6.6 °C and 6.6 ± 0.2 °C
In vitro [14]
  Papp at 5 h, 10 μM: 0.25 ×10⁻⁶ cm/s
In vitro [15]
  microsomal CLint at 0.5 μM: 97.2 µL/min/mg
[4]; 2 μM
  plasma stability remaining 60 min: 89.75%
HeLa-ACE2 cells [5]; [18]
  Data Mode: inactive
[6]; liver microsomes
  half-life at 0.5 μM: 28.5 min
SARS-CoV-2 [7]; HeLa-ACE2
  CoV2 Efficacy (delta S0:Sinf): 104.049
  SI (average CC50/average EC50): 4.8
SARS-CoV-2 [7]
  Data Mode: decreasing
  S0: 4.049
  Sinf: -100
  nHill: 4
SARS-CoV-2 [7]; supplement summary
  SI (average CC50/average EC50): 4.873
HeLa-ACE2 cells [8]; [20]
  EC50: > 9.61 µM
HeLa-ACE2 cells [8]; HeLa-ACE2, read-out: qAC50
  EC50: > 9.61 µM
Plasma stability
  half-life at 2 μM: 2310 min
Physchem [16]
  chromatographic logD: 4.7
SARS-CoV-2 [9]; Severe acute respiratory syndrome coronavirus 2, HeLa-ACE2, read-out: CoV-2 EC50
  EC50: 2.97 µM
SARS-CoV-2 [9]
  AC50: 2.97 µM
  inhibition at 9.61 µM: > 50%
SARS-CoV-2 [9]; Severe acute respiratory syndrome coronavirus 2, HeLa-ACE2, read-out: SARS-CoV-2 EC50
  EC50: 2.9 ± 0.2 µM
SARS-CoV-2 [9]; Severe acute respiratory syndrome coronavirus 2, HeLa-ACE2, read-out: qAC50
  EC50: 2.97 µM
In vitro [10]
  AC50 at 24 h: 14.5 µM
In vitro [10]; [23]
  CC50 at 24 h: 14.5 µM
In vitro [10]; [24]
  CC50 at 24 h: 14.4 ± 0.2 µM

## NC[C@H]1O[C@H](O[C@H]2[C@H](O)[C@@H](O[C@H]3O[C@H](CO)[C@@H](O)[C@H](N)[C@H]3O)[C@H](N)C[C@@H]2N)[C@H](N)C[C@@H]1O [Tobramycin, reference compound]
SARS-CoV-2 PL^pro
  inhibition of SARS-CoV-2 PL^pro: ≥ 80%

## CC[C@@H](C)N1CCC(C(=O)NCc2ccc(OC)cc2)CC1 (racemic) [Compound 14]
Physchem [12]; pH 2, aqueous buffer
  solubility kinetic at 24 h: > 18.4 µg/mL
Physchem [12]; pH 7.4, aqueous buffer
  solubility kinetic at 24 h: > 18.3 µg/mL
[3]; liver microsomes
  half-life at 0.5 μM: 42.3 min
In vitro [13]
  microsomal CLint at 0.5 μM: 65.6 µL/min/mg
PL^pro
  ΔT m: 1.20 ± 0.06 °C
In vitro [14]
  Papp at 5 h, 10 μM: 0.77 ×10⁻⁶ cm/s
In vitro [15]
  microsomal CLint at 0.5 μM: < 12 µL/min/mg
[4]; 2 μM
  plasma stability remaining 60 min: 30.29%
[6]; liver microsomes
  half-life at 0.5 μM: 301 min
[17]
  metabolic stability (in words): improved stability
Plasma stability
  half-life at 2 μM: 224 min
Physchem [16]
  chromatographic logD: 1.61
